Measured values taken from publication PMC7318222, “A Family of Water‐Immiscible, Dipolar Aprotic, Diamide Solvents from Succinic Acid” (Chemsuschem, 2020).

Key:
[1] = Octanol/water partition coefficient (Log P(o/w)), shake flask method; assay type: physicochemical; details: this work
Text: The succindiamides have large, positive Log P (o/w) values, meaning they favor the organic layer in an octanol/water biphasic system and are therefore more lipophilic.37 In contrast, the traditional dipolar aprotics have large, negative Log P (o/w) values so are more hydrophilic. […] Importantly, none of the succindiamide solvents have a Log P (o/w) above 4, the value that has been set as a threshold for bioaccumulation in the environment. […]
Equation S2. π = ν [DMSO]−ν [cyclohexane] […]
Determination of octanol/water partition coefficient (Log P(o/w))
Determination of the log P(o/w) was done by the shake flask method. 1.5 mL each of octanol and water were mixed in a 4 mL vial. 30 μL of the test solute and 10 μL of an internal standard (diglyme) were added and the mixture was shaken for 30 seconds and allowed to stand overnight. Samples (1 mL) were taken from both the aqueous and organic layers and added to 1.5 mL GC vials for GC analysis.
Log P(o/w) was obtained using Equation S5.

PPARγ = target: T1, PPARγ (Homo sapiens, UniProt P37231); experiment: PPARγ CALUX reporter gene assay; assay type: cell-based; design: key: –: no effect observed up to the highest test concentration; details: PC10, 24 h exposure
T1 construct: expression construct for the full-length human receptor under investigation; expressed in transfected cells; host or cells: human U2-OS cells (ATCC HTB-96), stably transfected
T1 sequence (P37231 1-505): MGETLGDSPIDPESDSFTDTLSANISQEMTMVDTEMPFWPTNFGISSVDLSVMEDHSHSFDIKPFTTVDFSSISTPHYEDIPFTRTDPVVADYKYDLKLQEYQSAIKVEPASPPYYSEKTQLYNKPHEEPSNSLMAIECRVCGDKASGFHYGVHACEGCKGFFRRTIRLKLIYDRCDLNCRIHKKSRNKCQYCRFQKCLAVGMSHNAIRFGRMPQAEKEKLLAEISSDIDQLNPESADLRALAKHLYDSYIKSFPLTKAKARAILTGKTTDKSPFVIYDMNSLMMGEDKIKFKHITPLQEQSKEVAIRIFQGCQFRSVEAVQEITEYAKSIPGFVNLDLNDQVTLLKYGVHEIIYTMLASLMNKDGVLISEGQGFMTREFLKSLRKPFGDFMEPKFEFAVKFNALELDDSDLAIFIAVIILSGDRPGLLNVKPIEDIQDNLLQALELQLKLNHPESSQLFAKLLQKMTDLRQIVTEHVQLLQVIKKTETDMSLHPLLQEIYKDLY
Text: (§1) 2-methylimidazole 99.0%, zinc(II) nitrate hexahydrate ≥99.0%, para-cymene 99.0%, 1,4-dioxane 99.8% (anhydrous), 4-nitroaniline ≥99.0%, 1-octanol ≥99.0%, diglyme ≥99.0%, DMSO-d6 (99.8% D) and chloroform-d (99.8% D) were purchased from Sigma-Aldrich. Toluene ≥99.0%, hexane ≥99.5%, DCM ≥99.5%, chloroform ≥99.5%, DMSO ≥99.0% were purchased from VWR. N,N-diethyl-4-nitroaniline ≥98.0% was purchased from Alfa Aeser. Cyrene was supplied by Circa group. N-butylpyrrolidinone was supplied by Eastman chemicals. N,N-dimethylformamide 99.9% and N,N-dimethylacetamide 99.9% were purchased from Fischer. The flakes of Ultrason® E3020 P Polyarylethersulfone of 55,000 Da were obtained from INGE.BASF, Germany. The CALUX cell lines have been described previously.[1] They are based on human U2-OS cells (ATCC, HTB-96) stably transfected with an expression construct for the full-length human receptor under investigation, and a reporter construct consisting of multimerized responsive elements for the cognate receptor coupled to a minimal promoter element (TATA) and a luciferase gene. Cells were maintained as described previously,[2] using cell culture media and supplements from Fisher Scientific as described in the experimental procedures section. […]
(§2) In vitro reporter gene assays
(§3) The automated CALUX assays were carried out similarly as described earlier,[12] with some adaptations. In brief, the assay was performed in CO2 independent medium (Fisher Scientific, […]
(§4) supplement (Fisher Scientific, 11574466), 10 U/mL penicillin and 10 µg/mL streptomycin. A cell suspension in assay medium was made of 1 × 10^5cells/mL, and white 384-wells plates were seeded with 30 µl cell suspension/well. After 24 h, exposure medium was prepared. A dilution series in 0.5log unit increments of each test compound (in DMSO) was added to a 96-wells plate containing assay medium (2% v/v). Of this exposure mixture, 30 µl was added to the assay plates containing the CALUX cells, resulting in a final DMSO concentration of 1%. Additionally, DMSO blanks and a full dose response curve of the relevant reference compound were included on each plate. All samples were tested in triplicate. The preparation of the compound dilution series as well as the exposure of the cells were performed on a Hamilton StarLET liquid handling robot coupled to a Cytomat incubator.
(§5) Directly after exposure, plates were sealed with non-breathing plate seals (Plate sealer, easy seal transparent; Greiner-Bio-One, 676001). After 24 h the exposure medium was removed using an EL406 washer-dispenser (BioTek) and 10 µl/well triton lysisbuffer was added by the EL406.
Subsequently, the luciferase signal was measured in a luminometer (InfinitePro coupled to a Connect Stacker, both TECAN). In order to be able to detect receptor antagonism, several assays were also performed in antagonistic mode. […]
The luminometer data was analysed as follows; the average of the triplicate wells was determined, and the average blank (DMSO) value was subtracted. […] For antagonist- and cytotoxicity experiments, PC20 values were determined instead, which was defined as the concentration where the test compound causes a 20% decrease in the basal signal, which was […]
curve, the signal induction above background (DMSO) was determined, and the concentration where the compound elicited a 1.5-fold increase above background was used as LEC.

ESRE = ESRE CALUX assay (unfolded protein response); assay type: cell-based, human; design: key: –: no effect observed up to the highest test concentration; details: cell signaling pathway assay, 24 h exposure
Text: Six of the CALUX assays (TCF through p53) detect activation of several cellular signaling pathways, which are indicative of general stress and acute toxicity, but also a range of more specific types of toxicity, including reproductive toxicity. […]
as §1, §2, §3, §4, §5
Subsequently, the luciferase signal was measured in a luminometer (InfinitePro coupled to a Connect Stacker, both TECAN). In order to be able to detect receptor antagonism, several assays were also performed in antagonistic mode. The assay procedure was as described above, with the only exception that the EC50 concentration of the reference agonist was present during the exposure.
The luminometer data was analysed as follows; the average of the triplicate wells was determined, and the average blank (DMSO) value was subtracted. […] For antagonist- and cytotoxicity experiments, PC20 values were determined instead, which was defined […]

SMILES	logP [1]	LEC PPARγ (PPARγ)	LEC ESRE (ESRE)
CN1CCCC1=O [NMP, N‐methyl‐2‐pyrrolidone, reference compound]		–	–
CCCCN(C)C(=O)CCC(=O)N(C)CCCC [MBSA, N,N′‐dimethyl‐N,N′‐dibutylsuccindiamide]	1.65	–	−2.4 Log M
CCCCN1CCCC1=O [NBP, N‐Butylpyrrolidinone, reference compound]	0.99	–	–

More lines, main results first:

logP [1]	LEC PPARγ (PPARγ)	SMILES	LEC ESRE (ESRE)
2.72	–	CCCCN(CC)C(=O)CCC(=O)N(CC)CCCC [EBSA, N,N′‐diethyl‐N,N′‐dibutylsuccindiamide]	–
3.77	–	CCCCN(CCCC)C(=O)CCC(=O)N(CCCC)CCCC [TBSA, N,N,N′,N′‐tetrabutylsuccindiamide]	–
